Assay results as given in US8614064B2, “Methods of diagnosing atherosclerosis by measuring ApoCI” (The Johns Hopkins University, priority 2003, dated 2013).

Tests used:
Type in all cases: cell-based, human
Settings in all cases: ApoCI-treated cells
SR-BI = experiment: Western measurement of scavenger receptor BI level in AoSMC
Method: (§1) Confluent cultures of AoSMC were preincubated with serum-free medium for 30 min and then treated with ApoCI (2.5 μg/ml medium), HMS (58.8 μg apoA-I/ml medium and 6.2 μg ApoCI/ml medium), and C2-Ceramide (30 μM). At indicated time periods cells were harvested in PBS and pellets lysed in 10 mM HEPES buffer (pH 7.4) 5 mM EDTA, 0.25 mM EGTA, 50 mM NaF, 0.35 M sucrose, 0.1% Nonidet P-40 and protease inhibitors 2 μg/ml aprotinin, 10 μg/ml leupeptin, 5 μg/ml pepstatin, and 1 mM PMSF. Protein concentration was determined using BCA-kit (Pierce, Rockford, Ill.). 100 μg of protein was subjected to electrophoresis in denaturing conditions on 4-15% polyacrylamide gel and electro transferred onto nitrocellulose (BioRad, Rochester, N.Y.). After the transfer, membranes were blocked for 1 h at room temperature in TBS-T/5% milk. Western assay was performed using rabbit caveolin-I (1:1000), SR-BI (1:5000) or goat ABCA1 (1:1000) primary antibody (Santa Cruz Biotechnology, Santa Cruz, Calif.) and horseradish peroxidase-conjugated anti-rabbit or anti-goat antibody (Amersham Pharmacia Biotech, Piscataway, N.J.). Blots were developed using ECL^plus Western blotting detection reagents (Amersham Pharmacia Biotech) and were scanned by laser densitometry. The intensity of the signals were quantified with the ImageGuant program (Molecular Dynamic, Sunnyvale, Calif.).

ABC-A1 = experiment: Western measurement of ABC transporter ABCA1 level in AoSMC
Method: as §1

caveolin = experiment: Western measurement of caveolin-I level in AoSMC
Method: as §1

Apolipoprotein C-I (TPDVSSALDKLKEFGNTLEDKARELISRIKQSELSAKMREWFSETFQKVKEKLKIDS; UniProt P02654 27-83, looked up) [ApoCI, 6.6-kDa single-chain plasma protein of 57 amino acids; purified human ApoCI purchased from Academy Bio-Medical Company]
cellular level of the scavenger receptor binding protein (SR-BI) (SR-BI): transiently and significantly decreased
cellular level of the ATP binding cassette (ABC-A1) protein (ABC-A1): transiently and significantly decreased
level of caveolin (caveolin): did not alter
